Values quoted from earlier work in patent publication US7833986B2, “Anti-inflammatory peptides” (Salpep Biotechnology Inc., priority 2002, dated 2010).

Tested on: lipopolysaccharide-induced hypotension
Conditions: Mathison et al. (1997)

For submandibular gland peptide-T [SGP-T], the “doses that inhibit lipopolysaccharide-induced hypotension” value is given as at least 1 µg/kg.
